The target in assay [1] is human HexB (Homo sapiens, UniProt P07686). Briefly: inhibition kinetics with pNP-GlcNAc substrate, Lineweaver-Burk. The class given is biochemical.
The target of assay [2] is T1, human OGA (O-GlcNAcase) (Homo sapiens, UniProt O60502).
T1 sequence (O60502 1-916): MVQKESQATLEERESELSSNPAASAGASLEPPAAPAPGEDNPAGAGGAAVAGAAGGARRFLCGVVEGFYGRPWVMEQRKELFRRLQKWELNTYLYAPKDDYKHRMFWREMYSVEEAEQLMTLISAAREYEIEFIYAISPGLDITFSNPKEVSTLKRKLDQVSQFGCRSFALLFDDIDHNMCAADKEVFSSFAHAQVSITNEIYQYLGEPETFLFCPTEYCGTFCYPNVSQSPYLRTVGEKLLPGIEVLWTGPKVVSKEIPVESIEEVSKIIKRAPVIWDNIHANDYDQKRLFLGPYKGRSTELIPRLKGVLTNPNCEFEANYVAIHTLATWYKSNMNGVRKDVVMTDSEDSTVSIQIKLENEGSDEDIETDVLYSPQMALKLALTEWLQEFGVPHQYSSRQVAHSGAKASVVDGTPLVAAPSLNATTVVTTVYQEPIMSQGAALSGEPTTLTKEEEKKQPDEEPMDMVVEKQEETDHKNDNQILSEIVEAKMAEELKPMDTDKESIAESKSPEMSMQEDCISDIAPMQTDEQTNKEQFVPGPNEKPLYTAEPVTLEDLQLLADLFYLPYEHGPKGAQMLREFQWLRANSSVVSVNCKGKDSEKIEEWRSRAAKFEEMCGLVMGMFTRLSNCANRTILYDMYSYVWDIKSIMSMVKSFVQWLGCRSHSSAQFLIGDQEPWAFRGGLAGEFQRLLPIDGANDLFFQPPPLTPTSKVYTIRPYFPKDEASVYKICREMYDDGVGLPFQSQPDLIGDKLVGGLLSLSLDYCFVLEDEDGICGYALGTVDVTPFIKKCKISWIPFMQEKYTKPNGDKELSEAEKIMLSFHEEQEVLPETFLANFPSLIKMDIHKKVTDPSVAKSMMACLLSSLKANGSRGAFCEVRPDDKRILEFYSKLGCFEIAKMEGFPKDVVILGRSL
Briefly: continuous UV/Vis assay with pNP-GlcNAc substrate, recombinant enzyme. The class given is biochemical.

Each structure is given as a SMILES string.

For one compound, Ki results are on record in article PMC2954295 (Chemistry & Biology, 2010).

human HexB, sequence (P07686 122-311): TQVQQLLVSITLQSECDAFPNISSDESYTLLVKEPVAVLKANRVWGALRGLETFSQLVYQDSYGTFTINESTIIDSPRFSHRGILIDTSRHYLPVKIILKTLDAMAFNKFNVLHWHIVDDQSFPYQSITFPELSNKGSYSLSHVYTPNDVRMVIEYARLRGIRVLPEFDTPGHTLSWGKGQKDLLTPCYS
human HexB, sequence (P07686 315-556): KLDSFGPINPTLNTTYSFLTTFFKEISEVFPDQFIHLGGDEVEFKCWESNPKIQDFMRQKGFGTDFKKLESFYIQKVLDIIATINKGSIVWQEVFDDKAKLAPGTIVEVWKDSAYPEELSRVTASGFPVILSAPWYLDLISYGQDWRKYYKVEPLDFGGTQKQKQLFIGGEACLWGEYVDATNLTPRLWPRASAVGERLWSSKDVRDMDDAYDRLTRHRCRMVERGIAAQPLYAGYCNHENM

For `CC(=O)N[C@H]1CN2CC[C@H](O)[C@@H]2[C@@H](O)[C@@H]1O` [6-Ac-Cas], the Ki in assay [1] stood at 250 nM; in assay [2], 300 nM.

As usually defined, the Ki is a measure of affinity in units of concentration, obtained from inhibition or displacement.
